± gives the expanded uncertainty stated by the source.
Conditions: Liquid, Vibrating tube method

CCC(C)N (configuration not stated) [2-butanamine]
Conditions	mass density [kg/m3]
293.15 K, 100 kPa	725.3 ± 1.1
293.15 K, 10000 kPa	733.6 ± 1.1
293.15 K, 20000 kPa	741.2 ± 1.1
293.15 K, 30000 kPa	748.1 ± 1.1
293.15 K, 40000 kPa	754.5 ± 1.1
293.15 K, 50000 kPa	760.4 ± 1.2
293.15 K, 60000 kPa	766.1 ± 1.2
293.15 K, 70000 kPa	771.3 ± 1.2
293.15 K, 80000 kPa	776.3 ± 1.3
293.15 K, 90000 kPa	781.1 ± 1.3
293.15 K, 100000 kPa	785.5 ± 1.3
293.15 K, 110000 kPa	789.7 ± 1.4
293.15 K, 120000 kPa	793.9 ± 1.4
293.15 K, 130000 kPa	797.8 ± 1.4
293.15 K, 140000 kPa	801.5 ± 1.5
303.15 K, 100 kPa	715.1 ± 1.1
303.15 K, 10000 kPa	724.3 ± 1.1
303.15 K, 20000 kPa	732.4 ± 1.1
303.15 K, 30000 kPa	739.7 ± 1.1
303.15 K, 40000 kPa	746.3 ± 1.1
303.15 K, 50000 kPa	752.5 ± 1.2
303.15 K, 60000 kPa	758.3 ± 1.2
303.15 K, 70000 kPa	763.7 ± 1.2
303.15 K, 80000 kPa	768.9 ± 1.3
303.15 K, 90000 kPa	773.8 ± 1.3
303.15 K, 100000 kPa	778.4 ± 1.4
303.15 K, 110000 kPa	782.9 ± 1.4
303.15 K, 120000 kPa	787.2 ± 1.4
303.15 K, 130000 kPa	791.2 ± 1.5
303.15 K, 140000 kPa	795.2 ± 1.5
313.15 K, 100 kPa	705 ± 1.1
313.15 K, 10000 kPa	714.8 ± 1.1
313.15 K, 20000 kPa	723.4 ± 1.1
313.15 K, 30000 kPa	731.1 ± 1.1
313.15 K, 40000 kPa	738.2 ± 1.1
313.15 K, 50000 kPa	744.7 ± 1.2
313.15 K, 60000 kPa	750.8 ± 1.2
313.15 K, 70000 kPa	756.5 ± 1.3
313.15 K, 80000 kPa	761.9 ± 1.3
313.15 K, 90000 kPa	767 ± 1.3
313.15 K, 100000 kPa	771.8 ± 1.4
313.15 K, 110000 kPa	776.4 ± 1.4
313.15 K, 120000 kPa	780.8 ± 1.5
313.15 K, 130000 kPa	785.1 ± 1.5
313.15 K, 140000 kPa	789.1 ± 1.5
323.15 K, 100 kPa	694.7 ± 1.1
323.15 K, 10000 kPa	705.4 ± 1.1
323.15 K, 20000 kPa	714.5 ± 1.1
323.15 K, 30000 kPa	722.8 ± 1.1
323.15 K, 40000 kPa	730.4 ± 1.2
323.15 K, 50000 kPa	737.2 ± 1.2
323.15 K, 60000 kPa	743.6 ± 1.2
323.15 K, 70000 kPa	749.5 ± 1.3
323.15 K, 80000 kPa	755.2 ± 1.3
323.15 K, 90000 kPa	760.4 ± 1.3
323.15 K, 100000 kPa	765.4 ± 1.4
323.15 K, 110000 kPa	770.2 ± 1.4
323.15 K, 120000 kPa	774.7 ± 1.5
323.15 K, 130000 kPa	779 ± 1.5
323.15 K, 140000 kPa	783.2 ± 1.6
333.15 K, 10000 kPa	695.4 ± 1.1
333.15 K, 20000 kPa	705.2 ± 1.1
333.15 K, 30000 kPa	714 ± 1.1
333.15 K, 40000 kPa	722 ± 1.2
333.15 K, 50000 kPa	729.2 ± 1.2
333.15 K, 60000 kPa	735.8 ± 1.2
333.15 K, 70000 kPa	742.1 ± 1.3
333.15 K, 80000 kPa	748 ± 1.3
333.15 K, 90000 kPa	753.4 ± 1.4
333.15 K, 100000 kPa	758.6 ± 1.4
333.15 K, 110000 kPa	763.5 ± 1.5
333.15 K, 120000 kPa	768.1 ± 1.5
333.15 K, 130000 kPa	772.5 ± 1.5
333.15 K, 140000 kPa	776.9 ± 1.6
343.15 K, 10000 kPa	685.9 ± 1.1
343.15 K, 20000 kPa	696.6 ± 1.1
343.15 K, 30000 kPa	706 ± 1.2
343.15 K, 40000 kPa	714.3 ± 1.2
343.15 K, 50000 kPa	721.9 ± 1.2
343.15 K, 60000 kPa	728.8 ± 1.3
343.15 K, 70000 kPa	735.3 ± 1.3
343.15 K, 80000 kPa	741.3 ± 1.3
343.15 K, 90000 kPa	747.1 ± 1.4
343.15 K, 100000 kPa	752.4 ± 1.4
343.15 K, 110000 kPa	757.4 ± 1.5
343.15 K, 120000 kPa	762.3 ± 1.5
343.15 K, 130000 kPa	767 ± 1.6
343.15 K, 140000 kPa	771.3 ± 1.6
353.15 K, 10000 kPa	675.8 ± 1.1
353.15 K, 20000 kPa	687.1 ± 1.1
353.15 K, 30000 kPa	697.2 ± 1.2
353.15 K, 40000 kPa	705.8 ± 1.2
353.15 K, 50000 kPa	714 ± 1.2
353.15 K, 60000 kPa	721.2 ± 1.3
353.15 K, 70000 kPa	728 ± 1.3
353.15 K, 80000 kPa	734.2 ± 1.4
353.15 K, 90000 kPa	740.1 ± 1.4
353.15 K, 100000 kPa	745.7 ± 1.4
353.15 K, 110000 kPa	751 ± 1.5
353.15 K, 120000 kPa	756 ± 1.5
353.15 K, 130000 kPa	760.7 ± 1.6
353.15 K, 140000 kPa	765.3 ± 1.6
363.15 K, 10000 kPa	665.7 ± 1.2
363.15 K, 20000 kPa	678 ± 1.2
363.15 K, 30000 kPa	688.5 ± 1.2
363.15 K, 40000 kPa	697.8 ± 1.2
363.15 K, 50000 kPa	706.2 ± 1.2
363.15 K, 60000 kPa	713.9 ± 1.3
363.15 K, 70000 kPa	721 ± 1.3
363.15 K, 80000 kPa	727.5 ± 1.4
363.15 K, 90000 kPa	733.6 ± 1.4
363.15 K, 100000 kPa	739.4 ± 1.5
363.15 K, 110000 kPa	744.8 ± 1.5
363.15 K, 120000 kPa	749.9 ± 1.6
363.15 K, 130000 kPa	754.8 ± 1.6
363.15 K, 140000 kPa	759.5 ± 1.7
373.15 K, 10000 kPa	655.5 ± 1.2
373.15 K, 20000 kPa	668.9 ± 1.2
373.15 K, 30000 kPa	680.1 ± 1.2
373.15 K, 40000 kPa	690 ± 1.2
373.15 K, 50000 kPa	698.2 ± 1.3
373.15 K, 60000 kPa	707 ± 1.3
373.15 K, 70000 kPa	714 ± 1.3
373.15 K, 80000 kPa	720.9 ± 1.4
373.15 K, 90000 kPa	727.2 ± 1.4
373.15 K, 100000 kPa	733.2 ± 1.5
373.15 K, 110000 kPa	738.7 ± 1.5
373.15 K, 120000 kPa	744 ± 1.6
373.15 K, 130000 kPa	749.1 ± 1.6
373.15 K, 140000 kPa	753.9 ± 1.7
383.15 K, 10000 kPa	645.5 ± 1.2
383.15 K, 20000 kPa	659.9 ± 1.2
383.15 K, 30000 kPa	671.9 ± 1.2
383.15 K, 40000 kPa	682.3 ± 1.2
383.15 K, 50000 kPa	691.4 ± 1.3
383.15 K, 60000 kPa	699.6 ± 1.3
383.15 K, 70000 kPa	707.3 ± 1.4
383.15 K, 80000 kPa	714.4 ± 1.4
383.15 K, 90000 kPa	720.8 ± 1.5
383.15 K, 100000 kPa	726.9 ± 1.5
383.15 K, 110000 kPa	732.7 ± 1.6
383.15 K, 120000 kPa	738.2 ± 1.6
383.15 K, 130000 kPa	743.3 ± 1.7
383.15 K, 140000 kPa	748.2 ± 1.7
393.15 K, 10000 kPa	634.9 ± 1.2
393.15 K, 20000 kPa	650.5 ± 1.2
393.15 K, 30000 kPa	663.1 ± 1.2
393.15 K, 40000 kPa	674.3 ± 1.2
393.15 K, 50000 kPa	684.3 ± 1.3
393.15 K, 60000 kPa	693 ± 1.3
393.15 K, 70000 kPa	700.9 ± 1.4
393.15 K, 80000 kPa	708.2 ± 1.4
393.15 K, 90000 kPa	714.9 ± 1.5
393.15 K, 100000 kPa	721.2 ± 1.5
393.15 K, 110000 kPa	727.2 ± 1.6
393.15 K, 120000 kPa	732.8 ± 1.6
393.15 K, 130000 kPa	738.1 ± 1.7
393.15 K, 140000 kPa	742.9 ± 1.7
403.15 K, 10000 kPa	623.9 ± 1.2
403.15 K, 20000 kPa	640.6 ± 1.2
403.15 K, 30000 kPa	654.5 ± 1.2
403.15 K, 40000 kPa	666.1 ± 1.3
403.15 K, 50000 kPa	676.3 ± 1.3
403.15 K, 60000 kPa	685.3 ± 1.3
403.15 K, 70000 kPa	693.6 ± 1.4
403.15 K, 80000 kPa	701.1 ± 1.4
403.15 K, 90000 kPa	708.2 ± 1.5
403.15 K, 100000 kPa	714.9 ± 1.5
403.15 K, 110000 kPa	721.1 ± 1.6
403.15 K, 120000 kPa	726.9 ± 1.6
403.15 K, 130000 kPa	732.3 ± 1.7
403.15 K, 140000 kPa	737.4 ± 1.8
